In assay [1] the target is D(2) dopamine receptor (Rattus norvegicus, UniProt P61169). Briefly: Displacement of [3H]Spiperone from rat dopamine D2L receptor expressed in HEK293 cells. It is filed as cell-based.
Assay [2] concerns the target D(3) dopamine receptor (Rattus norvegicus, UniProt P19020). Put plainly: Displacement of [3H]Spiperone from rat dopamine D3 receptor expressed in HEK293 cells. Type of assay: cell-based.

Chain of D(3) dopamine receptor (P19020 whole entry): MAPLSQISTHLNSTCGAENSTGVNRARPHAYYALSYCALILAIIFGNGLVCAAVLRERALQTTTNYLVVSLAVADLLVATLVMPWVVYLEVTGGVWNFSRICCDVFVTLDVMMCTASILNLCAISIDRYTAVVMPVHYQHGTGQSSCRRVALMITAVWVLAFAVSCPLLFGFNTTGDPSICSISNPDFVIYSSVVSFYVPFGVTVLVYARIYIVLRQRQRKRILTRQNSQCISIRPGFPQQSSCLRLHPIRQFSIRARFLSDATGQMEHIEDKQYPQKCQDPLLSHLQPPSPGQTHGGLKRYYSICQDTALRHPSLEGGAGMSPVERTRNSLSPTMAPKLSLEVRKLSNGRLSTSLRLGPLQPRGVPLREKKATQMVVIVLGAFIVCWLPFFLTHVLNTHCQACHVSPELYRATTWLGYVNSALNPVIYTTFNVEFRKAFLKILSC
Chain of D(2) dopamine receptor (P61169 whole entry): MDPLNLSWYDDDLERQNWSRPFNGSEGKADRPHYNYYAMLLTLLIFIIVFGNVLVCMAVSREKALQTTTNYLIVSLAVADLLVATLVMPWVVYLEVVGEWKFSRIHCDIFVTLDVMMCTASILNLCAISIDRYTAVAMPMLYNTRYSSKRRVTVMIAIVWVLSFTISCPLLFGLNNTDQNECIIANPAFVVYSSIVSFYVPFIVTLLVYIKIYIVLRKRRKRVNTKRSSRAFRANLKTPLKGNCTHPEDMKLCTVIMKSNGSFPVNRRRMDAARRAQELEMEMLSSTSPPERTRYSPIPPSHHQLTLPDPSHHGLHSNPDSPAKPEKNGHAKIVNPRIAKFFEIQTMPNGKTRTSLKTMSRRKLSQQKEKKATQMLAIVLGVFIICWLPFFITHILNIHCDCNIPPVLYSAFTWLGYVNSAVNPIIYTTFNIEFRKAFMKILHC

For the compound `Oc1ccc2c(c1)[C@@H]1CCCN(CCN3CCN(c4ccccc4)CC3)[C@H]1CC2`, the Ki turned out to be 219 nM in assay [1] and 72.2 nM in assay [2].
In the same order, the values of `CCCN(CCN1CCN(c2ccccc2)CC1)[C@H]1CCc2nc(N)sc2C1` are 243 nM and 4.15 nM.
`CCCN(CCN1CCN(c2ccccc2)CC1)[C@@H]1CCc2nc(N)sc2C1`: the Ki in assay [1] came to 1980 nM; in assay [2], 44 nM.
As to `CCCN(CCN1CCN(c2ccccc2)CC1)[C@H]1CCc2ccc(O)cc2C1`, the Ki is 809 nM in assay [1] and 38.6 nM in assay [2].
Take `Oc1cccc2c1CC[C@@H]1[C@@H]2CCCN1CCN1CCN(c2ccccc2)CC1`: the Ki in assay [1] amounted to 835 nM; in assay [2], 89.3 nM.
Taken in the same sequence, the figures for `CCCN(CCN1CCN(c2ccc(-c3ccccc3)cc2)CC1)[C@H]1CCc2nc(N)sc2C1` were 234 nM and 0.925 nM.
Regarding `Oc1cccc2c1CC[C@H]1[C@H]2CCCN1CCN1CCN(c2ccccc2)CC1`, the results for the Ki in assay [1] and in assay [2] were 23.6 nM and 4.95 nM, respectively.
As to `CCCN1CCC[C@@H]2Cc3c(O)cccc3C[C@H]21` (racemic), the inhibitory constant (Ki) is 2780 nM in assay [1] and 395 nM in assay [2].
With `Oc1ccc2c(c1)C[C@H]1[C@@H](CCCN1CCCCN1CCN(c3ccccc3)CC1)C2` (racemic), the Ki in assay [1] stood at 289 nM; in assay [2], 102 nM.
On to `Oc1cccc2c1C[C@@H]1CCCN(CCN3CCN(c4cccc(Cl)c4Cl)CC3)[C@H]1C2` (racemic), for which the Ki came out at 136 nM in assay [1] and 168 nM in assay [2].
Turning to `Oc1ccc2c(c1)C[C@H]1[C@@H](CCCN1CCN1CCN(c3ccccc3)CC1)C2` (racemic), the results for the inhibition constant (Ki) in assay [1] and in assay [2] were 2520 nM and 473 nM, respectively.
As for `Oc1ccc2c(c1)C[C@H]1[C@@H](CCCN1CCN1CCN(c3cccc(Cl)c3Cl)CC1)C2` (racemic), the Ki in assay [1] is 338 nM; in assay [2], 256 nM.
Taken in the same sequence, the figures for `Oc1cccc2c1C[C@@H]1CCCN(CCN3CCN(c4ccccc4)CC3)[C@H]1C2` (racemic) were 1710 nM and 736 nM.
On to `Oc1ccc2c(c1)C[C@@H]1[C@@H](CCCN1CCN1CCN(c3cccc(Cl)c3Cl)CC1)C2` (racemic), for which the Ki was 148 nM in assay [1] and 187 nM in assay [2].
In the same order, the values of `CCCN1CCC[C@H]2c3cccc(O)c3CC[C@@H]21` (relative stereo) are 347 nM and 96 nM.

The values above are taken from ChEMBL document CHEMBL1151740, “Structurally constrained hybrid derivatives containing octahydrobenzo[g or f]quinoline moieties for dopamine D2 and D3 receptors: binding characterization at D2/D3 receptors and elucidation of a pharmacophore model” (J Med Chem, 2008).
